Assay results taken from patent US20240082313A1, “PHARMACEUTICAL COMPOSITIONS AND THEIR METHODS OF USE” (The Trustees of Indiana University, priority 2021, published 2024).
Entries after “also recorded” stand apart in the source; their conditions may differ.

Legend:
[1] = tested on: human breast cancer and prostate cancer tissues; experiment: Ex vivo tissue assay; type: cell-based; conditions: breast (ER-positive and -negative) and prostate cancer tissue
Experimental: Ex vivo tissue assay. The usage of human breast cancer and prostate cancer tissues was approved by the Indiana University Institutional Review Board. Two human breast cancer tissues (˜1 g each; estrogen receptor-positive and -negative) and prostate cancer tissue (˜1 g), received from Simon Cancer Center Tissue Procurement Core, were manually fragmented with a scalpel into small pieces (0.5˜0.8 mm in length). These pieces were grown in DMEM with 10% fetal bovine serum and antibiotics for a day. iTS cell-derived conditioned medium was then added for three additional days, and a change in the fragment size was determined. BML284 (10 μM) or β-catenin (40 ng/μ1) was applied to tissue fragments and CM was prepared as described above.

[2] = tested on: EO771 cells; experiment: In vivo extravasation assay; set-up: species or system mouse; conditions: EO771 cells via tail vein
Source text: (§1) Animal models. The experimental procedures using animals were approved by the Indiana University Animal Care and Use Committee and were complied with the Guiding Principles in the Care and Use of Animals endorsed by the American Physiological Society. Mice were housed five per cage and provided with mouse chow and water ad libitum. In the mouse model of mammary tumors, C57BL/6 female mice (˜8 weeks, Envigo RMS, Inc., Indianapolis, IN, USA) were randomly assigned into five groups (14 mice per group). The placebo groups received cells transfected with a negative control vector, and the negative control group received cells transfected with β-catenin overexpression vector. The three treatment groups received β-catenin overexpressing iTS CM, BML-treated cells, and BML-treated iTS CM. Each group received a subcutaneous injection of EO771 cells (3.0×10^5 cells in 50 μl PBS) to the mammary fat pad. For tibial osteolysis, C57BL/6 female mice (8 mice per group) received an intra-tibial injection of EO771 cells (2.5×10^5 cells in 20 μl PBS) to the right tibia. The treatment group received iTS cell-derived CM as an injection into the intraperitoneal cavity. The animals were sacrificed on day 18, and the weight of each tumor was measured. To evaluate the effects of CMs for tumor invasion, an in vivo extravasation assay was conducted. […]

[3] = tested on: EO771 cells; experiment: Mouse model of mammary tumors; type: in vivo; conditions: EO771 cells in mammary fat pad
Source text: as §1

[4] = tested on: 4T1.2 cells; experiment: MTT-based viability; type: cell-based, mouse; conditions: 1 to 5 μM OAC2
[5] = tested on: 4T1.2 cells; experiment: Mouse model of a mammary tumor; type: in vivo; conditions: BALB/c mice, daily intraperitoneal injection of 10 mg/kg OAC2
[6] = tested on: 4T1.2 cells; experiment: Western blot analysis; type: cell-based, mouse; conditions: 4T1.2 cells, OAC2 treatment
Experimental: Western blot analysis. Cultured cells were lysed in a radio-immunoprecipitation assay (RIPA) buffer and proteins were fractionated by 10-15% SDS gels and electro-transferred to polyvinylidene difluoride (PVDF) transfer membranes (Millipore, Billerica, MA, USA). The membrane was incubated overnight with primary antibodies and then with secondary antibodies conjugated with horseradish peroxidase (Cell Signaling, Danvers, MA, USA). Antibodies against c-Myc, Oct4, Sox2, Klf4, Lrp5, Runx2, Snail, TGFβ, Eno1, Eef2, vinculin (Cell Signaling, Danvers, MA, USA), MMP9, NFATc1, cathepsin K (Santa Cruz, Dallas, TX, USA), TRAIL (Novus, Centennial, CO, USA), p53 (Invitrogen, Carlsbad, CA, USA), Hsp90ab1 (Abcam, Cambridge, UK), Kdm3a (Thermo-Fisher Scientific, Waltham, MA, USA) and β-actin as a control (Sigma, St. Louis, MO, USA) were employed. The level of proteins was determined using a SUPERSIGNAL™ west femto maximum sensitivity substrate (Thermo-Fisher Scientific, Waltham, MA, USA), and a luminescent image analyzer (LAS-3000, Fuji Film, Tokyo, Japan) was used to quantify signal intensities.

Row | SMILES | size of cancer tissue fragments [1] | number of tumor cells in the lung [2] | tumor weight [3] | MTT-based viability / proliferation of tumor cells, direct application [4] | size of mammary tumors / progression of tumors, direct administration [5] | Oct4 level [6]
1 | COc1cccc(-c2cc(NCc3ccc4c(c3)OCO4)nc(N)n2)c1 [BML284] | modestly increased | Increase | Increase | – | – | –
2 | O=C(Nc1ccc2[nH]ccc2c1)c1ccccc1 [OAC2] | – | – | – | did not alter; also recorded: No detectable change | did not alter; also recorded: No detectable change | Elevation
